According to ChEMBL document CHEMBL5344418, “Recent developments in antimalarial activities of 4-aminoquinoline derivatives” (Eur J Med Chem, 2023):
pIC50: −log10 of the molar value.

Columns and labels:
Type in all cases: functional, organism-based
[1] = system: Plasmodium falciparum; assay: Antimalarial activity against Plasmodium falciparum 3D7 assessed as inhibition of parasite growth
[2] = system: Plasmodium falciparum; assay: Antimalarial activity against CQ-resistant Plasmodium falciparum RKL9
[3] = system: Plasmodium berghei; assay: Antimalarial activity against liver stage Plasmodium berghei

pIC50 [3]	SMILES	pIC50 [1]	pIC50 [2]
	O=[N+]([O-])c1ccc(/C=N/Nc2ccnc3cc(Cl)ccc23)cc1	8.05	8.05
7.22	O=C(O)c1cn(C2CC2)c2cc(N3CCNCC3)c(F)cc2c1=O [CIPROFLOXACIN]		
